According to publication PMC9232612, “A phase 1b randomised controlled trial of a glucagon-like peptide-1 and glucagon receptor dual agonist IBI362 (LY3305677) in Chinese patients with type 2 diabetes” (Nature Communications, 2022):
Where “and” joins values, the source holds several entries; their conditions need not be identical. Equal values may be shown once.

Key:
Assay type in all cases: in vivo, human
[1] = system: Chinese patients with T2D; assay: Treatment-emergent adverse events (MedDRA SOC/preferred term), 12-week once-weekly s.c. treatment plus 8-week safety follow-up, phase 1b
Method: The study included a 3-week screening period, a 12-week treatment period and an 8-week safety follow-up period. During the 12-week treatment period, IBI362 or placebo was subcutaneously administered once weekly with one of the three dose-escalation schedules: 1.0–2.0–3.0 mg for the 3.0 mg cohort, 1.5–3.0–4.5 mg for the 4.5 mg cohort and 2.0–4.0–6.0 mg for the 6.0 mg cohort (each dose level administered for 4 weeks). The 6.0 mg cohort started dosing after tolerability evaluation of 1.5 mg dosing in the 4.5 mg cohort. The internal unblinded safety monitoring group was responsible for the safety monitoring. Dulaglutide was subcutaneously administered once weekly at a fixed dose of 1.5 mg. Patients who were on metformin prior to the enrolment of this trial were required to continue their previous dose of metformin throughout the trial. Investigators and authorized study personnel in each centre recorded the study data into the electronic case report forms (eCRFs), which were reviewed and validated by clinical research associates. The data in the eCRFs were submitted to the electronic data capture database.
(§1) Primary outcomes of the study were the safety and tolerability of IBI362. Safety assessment included adverse events, physical examinations, laboratory tests (including lipase, amylase and calcitonin level measures), vital signs and 12-lead electrocardiogram. Adverse events were categorized according to the Medical Dictionary for Regulatory Activities system organ classes (SOCs) and preferred terms. Treatment-emergent adverse events (TEAEs) were monitored from the time of informed consent to the safety follow-up period. The severity of TEAEs (mild, moderate or severe) and the association between an event and the study drug were assessed by investigators based on pre-specified criteria.
Safety analyses were done in the safety population (defined as all patients who received at least one dose of the study treatment). Pharmacokinetic analyses were done in the pharmacokinetic population (defined as all patients who received at least one dose of IBI362 and had at least one valid plasma concentration assessment).

[2] = system: Chinese patients with T2D; assay: Change from baseline in heart rate, standard 12-lead electrocardiogram
Description: as §1
CFB in heart rate (beats/min),
Fig. S1: Change from baseline in heart rate over time.
Data are from standard 12-lead electrocardiogram, measured at 1 hour before each dose in the morning from week 0 to week 11, and 168 hours after the last dose (week 12). Data are plotted as means +/- SD. CFB = change from baseline; SD = standard deviation.Source data are provided as […]
(1 picture or pasted object on this page, not shown here)

[3] = system: Chinese patients with T2D; assay: Fasting plasma glucose (FPG); conditions: MMRM; for Change from baseline in fasting plasma glucose, LS mean / Change from baseline in fasting plasma glucose, LS mean (SE): n=8; for Change from baseline in fasting plasma glucose, LS mean (SE) / Fasting plasma glucose: ETD versus placebo, LS mean (90% CI): week 12
Method: HbA1c (2200101, Bio-Rad, USA), blood glucose (05168791190, Roche Diagnostics, Germany), insulin (12017547122, Roche Diagnostics, Germany), C peptide (03184897190, Roche Diagnostics, Germany), total GLP-1 (GLP-1 [7–36] amide and its metabolite, GLP-1 [9–36] amide, 10-1278-01, Mercodia AB, Sweden) and OXM (AL-139, AnshLabs, USA) tests were performed according to the manufactures’ instruction manuals in a central laboratory (KingMed Diagnostics, Guangzhou, China). HbA1c was measured using a Bio-rad D-100 Haemoglobin Testing System (Bio-rad). Blood glucose was measured using a Roche Cobas c702 analyser (Roche Diagnostics). Insulin and C peptide were measured using a Roche […] analyser (Roche Diagnostics). GLP-1 and OXM were measured using a Tecan Infinite M Plex microplate reader (TECAN).
Standard non-compartmental pharmacokinetics methods were used to analyze IBI362 plasma concentration data using Pkanalix 2020R1 (Lixoft, Antony, France). Secondary efficacy outcomes included change from baseline to week 12 in HbA1c, fasting plasma glucose (FPG), fasting insulin levels, change from baseline to week 12 in post-mixed-meal tolerance test (post-MTT) glucose, insulin, C peptide, GLP-1 and OXM levels, as well as seven-point self-measured blood glucose (SMBG) profile.
(§2) The analyses for change from baseline in HbA1c, FPG, post-MTT glucose AUC0–4 h and body weight were performed using the mixed-effect model for repeated measures (MMRM) with least-squares means and standard error provided. The MMRM included the corresponding baseline value, treatment, visit and treatment-by-visit as fixed effects and patient as a random effect. Mean change or mean percent change from baseline were analysed using a restricted maximum likelihood (REML)‐based repeated measures approach in combination with the Newton Raphson Algorithm. The fix effect of visit was fitted as a repeated effect and an unstructured covariance matrix was used. In case of non-converge, matrix like Variance Components and Compound Symmetry will be tested in a subsequent order until model‐convergence is achieved. The Kenward-Roger degree of freedom was used in estimating fixed effects. No missing data imputation was conducted. For HbA1c, FPG and body weight, point estimate of treatment difference versus placebo and 90% CI were provided for each IBI362 dose group and the dulaglutide group, with nominal p values.

Body weight = conditions: for Percent change from baseline to week 12 in body weight, single patients: each line a single patient; for Percent change from baseline in body weight, LS mean / Percent change from baseline in body weight, LS mean (SE): n=8; for Percent change from baseline in body weight, LS mean / Percent change from baseline in body weight, LS mean (SE) / Body weight (percent CFB): ETD versus placebo, LS mean (90% CI): MMRM; for Percent change from baseline in body weight, LS mean (SE) / Body weight (percent CFB): ETD versus placebo, LS mean (90% CI): week 12
Method: (§3) Exploratory outcomes included change from baseline in body weight, waist circumference, body-mass index (BMI) and change in homeostatic model assessment of β-cell function (HOMA-β) and insulin resistance (HOMA-IR).
as §2

[4] = system: Chinese patients with T2D; assay: Lipids (total cholesterol, LDL cholesterol, triglycerides); conditions: mean
Method: Fig. S8: Change from baseline in lipids levels at week 12.
Data are plotted as means +/- SD. IBI362 3.0 mg n = 7; IBI362 4.5 mg n = 5; IBI362 6.0 mg n = 8; Pooled placebo n = 10; Dulaglutide n = 6. CFB = change from baseline; LDL = low density lipoprotein; SD = standard deviation. Source data are provided as a Source Data file.
Total cholesterol LDL cholesterol Triglycerides
CFB in lipids at week 12 (mmol/L),
(1 picture or pasted object on this page, not shown here) […]
Table 4 Routine laboratory safety assessments […]
Lipids Total cholesterol (TC), triglyceride (TG), high-density lipoprotein cholesterol (HDL-C), and low-density lipoprotein cholesterol (LDL-C). […]

[5] = system: Chinese patients with T2D; assay: Homeostatic model assessment of β-cell function (HOMA-β); conditions: for Change from baseline to week 12 in HOMA-β, individual: single patients
Description: as §3

CC(C)C[C@H](NC(=O)[C@H](CC(C)C)NC(=O)[C@H](Cc1c[nH]c2ccccc12)NC(=O)[C@H](CCC(=O)O)NC(=O)[C@@H](NC(=O)[C@H](Cc1ccccc1)NC(=O)[C@H](CCC(=O)O)NC(=O)[C@H](CCCCNC(=O)COCCOCCNC(=O)COCCOCCNC(=O)CC[C@H](NC(=O)CCCCCCCCCCCCCCCCCCC(=O)O)C(=O)O)NC(=O)[C@H](C)NC(=O)[C@H](CCCCN)NC(=O)[C@H](CCCCN)NC(=O)[C@H](CCC(=O)O)NC(=O)[C@H](CC(=O)O)NC(=O)[C@H](CC(C)C)NC(=O)[C@H](Cc1ccc(O)cc1)NC(=O)[C@H](CCCCN)NC(=O)[C@H](CO)NC(=O)[C@H](Cc1ccc(O)cc1)NC(=O)[C@H](CC(=O)O)NC(=O)[C@H](CO)NC(=O)[C@@H](NC(=O)[C@H](Cc1ccccc1)NC(=O)[C@@H](NC(=O)CNC(=O)[C@H](CCC(N)=O)NC(=O)C(C)(C)NC(=O)[C@@H](N)Cc1c[nH]cn1)[C@@H](C)O)[C@@H](C)O)C(C)C)C(=O)N[C@@H](CCC(=O)O)C(=O)NCC(=O)NCC(=O)N1CCC[C@H]1C(=O)N[C@@H](CO)C(=O)N[C@@H](CO)C(=O)NCC(N)=O [IBI362]
median time to resolution of gastrointestinal adverse events (diarrhoea, nausea and vomiting) ([1]; 4.5 mg group, 10 events): 3.5 days
median time to resolution of gastrointestinal adverse events (diarrhoea, nausea and vomiting) ([1]; 6.0 mg group, 11 events): 4 days
tolerability ([1]; 3.0, 4.5 and 6.0 mg dose-escalation regimens): well tolerated
heart rate, mean change from baseline (bound) ([2]; 3.0 mg cohort): < 10 beats per minute
heart rate, mean change from baseline (bound) ([2]; 6.0 mg cohort): < 15 beats per minute
heart rate increase (up to) ([2]; patients receiving IBI362): 10-15 beats per minute
Change from baseline in fasting plasma glucose, LS mean ([3]; week 4, 3.0 mg cohort): -2.29 mmol/L
Change from baseline in fasting plasma glucose, LS mean ([3]; week 4, 4.5 mg cohort): -2.47 mmol/L
Change from baseline in fasting plasma glucose, LS mean ([3]; week 4, 6.0 mg cohort): -3.03 mmol/L
Change from baseline in fasting plasma glucose, LS mean ([3]; week 8, 3.0 mg cohort): -2.95 mmol/L
Change from baseline in fasting plasma glucose, LS mean ([3]; week 8, 4.5 mg cohort): -3.38 mmol/L
Change from baseline in fasting plasma glucose, LS mean ([3]; week 8, 6.0 mg cohort): -3.50 mmol/L
Change from baseline in fasting plasma glucose, LS mean (SE) ([3]; 3.0 mg cohort): −3.38 (0.49) mmol/L and −3.38 mmol/L
Fasting plasma glucose: ETD versus placebo, LS mean (90% CI) ([3]; 3.0 mg cohort): -0.85 mmol/L
Change from baseline in fasting plasma glucose, LS mean (SE) ([3]; 4.5 mg cohort): -3.82 mmol/L
Fasting plasma glucose: ETD versus placebo, LS mean (90% CI) ([3]; 4.5 mg cohort): -1.30 mmol/L
Change from baseline in fasting plasma glucose, LS mean (SE) ([3]; 6.0 mg cohort): -4.07 mmol/L
body weight reductions from baseline to week 12 (up to) (Body weight; across IBI362 cohorts): up to 5.4%
Percent change from baseline to week 12 in body weight, single patients (Body weight; 3.0 mg cohort): -0.9% and -2.2% and 0.6% and -1.0% and 0.0% and -5.1%
Percent change from baseline to week 12 in body weight, single patients (Body weight; 4.5 mg cohort): -15.9% and -3.7% and 1.3% and -1.6% and -6.0%
Percent change from baseline in body weight, LS mean (Body weight; week 4, 3.0 mg cohort): 0.1%
Percent change from baseline in body weight, LS mean (Body weight; week 4, 4.5 mg cohort): -1.1%
Percent change from baseline in body weight, LS mean (Body weight; week 4, 6.0 mg cohort): -1.7%
Percent change from baseline in body weight, LS mean (Body weight; week 8, 3.0 mg cohort): -0.2%
Percent change from baseline in body weight, LS mean (Body weight; week 8, 4.5 mg cohort): -2.1%
Percent change from baseline in body weight, LS mean (Body weight; week 8, 6.0 mg cohort): -3.3%
Percent change from baseline in body weight, LS mean (SE) (Body weight; 3.0 mg cohort): −0.9 (1.3) % and −0.9%
Body weight (percent CFB): ETD versus placebo, LS mean (90% CI) (Body weight; 3.0 mg cohort): 0.1 ( −2.6, 2.8) %
Percent change from baseline in body weight, LS mean (SE) (Body weight; 4.5 mg cohort): -5.0%
Body weight (percent CFB): ETD versus placebo, LS mean (90% CI) (Body weight; 4.5 mg cohort): −4.0 (−6.7, −1.2) % and −4.0%
Percent change from baseline in body weight, LS mean (SE) (Body weight; 6.0 mg cohort): -5.4%
Body weight (percent CFB): ETD versus placebo, LS mean (90% CI) (Body weight; 6.0 mg cohort): −4.4 (−7.0, −1.7) % and −4.4%
Change from baseline to week 12 in LDL cholesterol ([4]; IBI362 3.0 mg): -0.33 mmol/L
Change from baseline to week 12 in total cholesterol ([4]; IBI362 3.0 mg): -0.71 mmol/L
Change from baseline to week 12 in triglycerides ([4]; IBI362 3.0 mg): -0.83 mmol/L
Change from baseline to week 12 in LDL cholesterol ([4]; IBI362 4.5 mg): -1.15 mmol/L
Change from baseline to week 12 in total cholesterol ([4]; IBI362 4.5 mg): -1.68 mmol/L
Change from baseline to week 12 in triglycerides ([4]; IBI362 4.5 mg): -0.23 mmol/L
Change from baseline to week 12 in LDL cholesterol ([4]; IBI362 6.0 mg): -0.90 mmol/L
Change from baseline to week 12 in total cholesterol ([4]; IBI362 6.0 mg): -1.17 mmol/L
Change from baseline to week 12 in triglycerides ([4]; IBI362 6.0 mg): -0.66 mmol/L
Change from baseline to week 12 in HOMA-β, mean ([5]; 3.0 mg cohort, n=7): 9.2%
Change from baseline to week 12 in HOMA-β, mean ([5]; 4.5 mg cohort, n=5): 26.4%
Change from baseline to week 12 in HOMA-β, mean ([5]; 6.0 mg cohort, n=8): 21.0%
Change from baseline to week 12 in HOMA-β, individual ([5]; 3.0 mg cohort, n=7): -8.1% and 15.7% and 23.0% and -3.8% and 14.4% and 16.4% and 6.9%
Change from baseline to week 12 in HOMA-β, individual ([5]; 4.5 mg cohort, n=5): -9.6% and 82.4% and -0.3% and 47.8% and 11.6%
Change from baseline to week 12 in HOMA-β, individual ([5]; 6.0 mg cohort, n=8): -6.2% and 6.9% and 72.2% and 5.4% and 33.9% and 27.9% and -1.8% and 29.8%
